Experimental data: US8987284B2, “Phosphorus containing quinazoline compounds and methods of use” (Newgen Therapeutics, Inc., priority 2009, dated 2015)

Target: T1, EGFR kinase (Homo sapiens, UniProt P00533)
T1 construct: purchased Invitrogen PV3872
Test: Kinase assay for EGFR (TR-FRET LanthaScreen)
Format: biochemical
Conditions: % inhibition at 100 nM or IC50 (nM)
Experimental: The extent to which the compounds of the present invention modulate EGFR kinase activity can be determined using time-resolved Fret (TR-FRET) assay (LanthaScreen® kinase activity assay, from Invitrogen). The assay employs EGFR kinase (PV3872, Invitrogen), Tb-Py20 antibody (PV3552, Invitrogen) and fluorescein-poly GT (PV3610, In vitrogen)
The assay is performed in a Black 384-well plate (available from Corning). EGFR kinase (is diluted in TR-FRET Dilution Buffer (PV3189, InVitrogen) at concentration of 0.4 ug/ml as stock solution, and then 2-fold serial diluted. Addition of 1 mM ATP initiated the reaction, and the reaction is incubated for 1 h reaction at room temperature. 10 μL of the Tb-antibody (from Invitrogen)+EDTA (from Invitrogen) solution prepared was added to each well of the assay plate and mix briefly, and incubated for 30 min. The signal is monitored by using M5 microplate reader (Ex=332 nm, Em=488 nm and 518 nm). Each compound is tested in duplicate wells. EGFR without compound is used as control. Staurosporine (available from Sigma) is used as positive control compound. Inhibition was calculated as percentage of the EGFR activity (without compound)

T1 sequence (P00533 25-1210): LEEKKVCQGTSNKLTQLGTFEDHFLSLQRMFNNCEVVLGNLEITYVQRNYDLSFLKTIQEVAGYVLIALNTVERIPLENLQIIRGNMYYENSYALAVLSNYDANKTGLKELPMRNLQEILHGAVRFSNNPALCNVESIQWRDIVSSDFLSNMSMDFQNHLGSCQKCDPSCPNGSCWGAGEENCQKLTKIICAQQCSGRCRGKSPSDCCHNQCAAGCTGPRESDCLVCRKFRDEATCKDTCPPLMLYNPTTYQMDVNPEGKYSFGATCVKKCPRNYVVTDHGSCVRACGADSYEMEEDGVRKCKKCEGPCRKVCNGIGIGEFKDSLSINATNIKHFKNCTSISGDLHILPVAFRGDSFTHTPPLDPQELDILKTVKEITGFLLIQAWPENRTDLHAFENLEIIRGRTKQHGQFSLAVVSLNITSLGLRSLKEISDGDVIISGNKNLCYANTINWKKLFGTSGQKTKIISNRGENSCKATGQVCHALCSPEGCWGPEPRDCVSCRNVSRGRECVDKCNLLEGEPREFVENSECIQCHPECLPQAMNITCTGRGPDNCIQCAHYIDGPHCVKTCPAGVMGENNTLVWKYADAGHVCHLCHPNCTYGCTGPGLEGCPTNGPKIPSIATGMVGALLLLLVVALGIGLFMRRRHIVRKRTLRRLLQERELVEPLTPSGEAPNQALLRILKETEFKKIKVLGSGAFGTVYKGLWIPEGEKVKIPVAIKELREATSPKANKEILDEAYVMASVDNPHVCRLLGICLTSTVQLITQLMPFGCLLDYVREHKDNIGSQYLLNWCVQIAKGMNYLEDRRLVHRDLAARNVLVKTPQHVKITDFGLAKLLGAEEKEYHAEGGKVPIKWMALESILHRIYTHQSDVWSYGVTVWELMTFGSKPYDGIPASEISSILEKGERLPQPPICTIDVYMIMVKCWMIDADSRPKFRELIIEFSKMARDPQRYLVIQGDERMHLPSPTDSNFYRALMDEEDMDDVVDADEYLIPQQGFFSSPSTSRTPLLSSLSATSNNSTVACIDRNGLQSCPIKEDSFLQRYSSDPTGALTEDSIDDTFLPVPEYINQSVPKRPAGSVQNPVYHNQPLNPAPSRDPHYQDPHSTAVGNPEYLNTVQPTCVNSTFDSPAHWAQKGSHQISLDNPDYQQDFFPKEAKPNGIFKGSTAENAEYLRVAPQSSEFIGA

SMILES | EGFR inhibition inhibit % at 100 nM or IC50 (nM)
CP1(=O)CCN(CCCc2ccc3ncnc(Nc4ccc(OCc5cccc(F)c5)c(Cl)c4)c3c2)CC1 [Example 5, N-(3-chloro-4-(3-fluorobenzyloxy)phenyl)-6-(3-(4-methyl-1,4-azaphosphino-1-yl)propyl)quinazolin-4-amine] | ++ (>50% inhibition at 100 nM, or IC50 <100 nM for EGFR or ErbB2 kinases)
COP(=O)(CCNCc1ccc(-c2ccc3ncnc(Nc4ccc(OCc5cccc(F)c5)c(Cl)c4)c3c2)o1)OC [Example 6, dimethyl 2-((5-(4-(3-chloro-4-(3-fluorobenzyloxy)phenylamino)quinazolin-6-yl)furan-2-yl)methylamino)ethylphosphonate] | ++ (>50% inhibition at 100 nM, or IC50 <100 nM for EGFR or ErbB2 kinases)
CC1(C)COP(=O)(CCNCc2ccc(-c3ccc4ncnc(Nc5ccc(OCc6cccc(F)c6)c(Cl)c5)c4c3)o2)OC1 [Example 7, N-(3-chloro-4-(3-fluorobenzyloxy)phenyl)-6-(5-((2-(5,5-dimethyl-1,3,2-dioxaphosphino-2-yl)ethylamino)methyl)furan-2-yl)quinazolin-4-amine] | ++ (>50% inhibition at 100 nM, or IC50 <100 nM for EGFR or ErbB2 kinases)
CP(C)(=O)CCNCC#Cc1ccc2ncnc(Nc3ccc(OCc4cccc(F)c4)c(Cl)c3)c2c1 [Example 10, 6-(3-(2-(dimethylphosphinoyl)ethylamino)prop-1-ynyl)-N-(4-(3-fluorobenzyloxy)-3-chlorophenyl)quinazolin-4-amine] | ++ (>50% inhibition at 100 nM, or IC50 <100 nM for EGFR or ErbB2 kinases)
CP1(=O)CCN(C/C=C/c2ccc3ncnc(Nc4ccc(OCc5cccc(F)c5)c(Cl)c4)c3c2)CC1 [Example 11, N-(4-(3-fluorobenzyloxy)-3-chlorophenyl)-6-((E)-3-(4-methyl-1,4-azaphosphino-1-yl)prop-1-enyl)quinazolin-4-amine] | ++ (>50% inhibition at 100 nM, or IC50 <100 nM for EGFR or ErbB2 kinases)
Cc1ccc(Oc2ccc(Nc3ncnc4ccc(-c5ccc(CN6CCP(C)(=O)CC6)o5)cc34)cc2C)cn1 [Example 12] | ++ (>50% inhibition at 100 nM, or IC50 <100 nM for EGFR or ErbB2 kinases)
CP1(=O)CCN(Cc2ccc(-c3ccc4ncnc(Nc5ccc(OCc6cccc(F)c6)c(Br)c5)c4c3)o2)CC1 [Example 14, N-(4-(3-fluorobenzyloxy)-3-bromophenyl)-6-(5-((4-methyl-1,4-azaphosphino-1-yl)methyl)furan-2-yl)quinazolin-4-amine] | ++ (>50% inhibition at 100 nM, or IC50 <100 nM for EGFR or ErbB2 kinases)
CP1(=O)CCN(Cc2ccc(-c3ccc4ncnc(Nc5ccc6c(cnn6Cc6cccc(F)c6)c5)c4c3)o2)CC1 [Example 16, N-(1-(3-fluorobenzyl)-1H-indazol-5-yl)-6-(5-((4-methyl-1,4-azaphosphino-1-yl)methyl)furan-2-yl)quinazolin-4-amine] | ++ (>50% inhibition at 100 nM, or IC50 <100 nM for EGFR or ErbB2 kinases)
C[C@@H](Nc1ncnc2ccc(-c3ccc(CN4CCP(C)(=O)CC4)o3)cc12)c1ccccc1 [Example 18, (R)-6-(5-((4-methyl-1,4-azaphosphino-1-yl)methyl)furan-2-yl)-N-(1-phenylethyl)quinazolin-4-amine] | ++ (>50% inhibition at 100 nM, or IC50 <100 nM for EGFR or ErbB2 kinases)
CP1(=O)CCN(Cc2ccc(-c3ccc4ncnc(Nc5cccc(Cl)c5F)c4c3)o2)CC1 [Example 19, N-(3-chloro-2-fluorophenyl)-6-(5-((4-methyl-1,4-azaphosphino-1-yl)methyl)furan-2-yl)quinazolin-4-amine] | ++ (>50% inhibition at 100 nM, or IC50 <100 nM for EGFR or ErbB2 kinases)
CP1(=O)CCN(Cc2ccc(-c3ccc4ncnc(Nc5ccc(Br)cc5F)c4c3)o2)CC1 [Example 20, N-(4-Bromo-2-fluorophenyl)-6-(5-((4-methyl-1,4-azaphosphino-1-yl)methyl)furan-2-yl)quinazolin-4-amine] | + (between 20% to 50% inhibition at 100 nM, or IC50 between 100 and 1000 nM)
